Data from patent publication US20240287007A1, “N-(1,3,4-OXADIAZOL-2-YL)PHENYLCARBOXAMIDES AS HERBICIDES” (BAYER AKTIENGESELLSCHAFT, priority 2021, published 2024).

What was measured:
Type in all cases: in vivo
[1] = tested on: ABUTH (Abutylon threophrasti); experiment: Post-emergence herbicidal action against ABUTH; settings: visual assessment after about 3 weeks
Procedure: (§1) Seeds of monocotyledonous and dicotyledonous weed and crop plants are laid out in sandy loam soil in wood-fiber pots, covered with soil and cultivated in a greenhouse under good growth conditions. 2 to 3 weeks after sowing, the trial plants are treated at the one-leaf stage. The compounds of the invention, formulated in the form of wettable powders (WP) or as emulsion concentrates (EC), are then sprayed onto the green parts of the plants as aqueous suspension or emulsion at a water application rate equating to 600 to 800 l/ha with addition of 0.2% wetting agent. After the test plants have been left to stand in the greenhouse under optimal growth conditions for about 3 weeks, the action of the preparations is assessed visually in comparison to untreated controls (herbicidal action in percent (%): 100% activity=the plants have died, 0% activity=like control plants).

[2] = tested on: AMARE (Amaranthus retroflexus); experiment: Post-emergence herbicidal action against AMARE; settings: visual assessment after about 3 weeks
Procedure: as §1

[3] = tested on: DIGSA (Digitaria sanguinalis); experiment: Post-emergence herbicidal action against DIGSA; settings: visual assessment after about 3 weeks
Procedure: as §1

SETVI (Setaria viridis) [4] = experiment: Post-emergence herbicidal action against SETVI; settings: visual assessment after about 3 weeks
Procedure: as §1

VIOTR (Viola tricolor) [5] = experiment: Post-emergence herbicidal action against VIOTR; settings: visual assessment after about 3 weeks
Procedure: as §1

KCHSC (Kochia scoparia) [6] = experiment: Post-emergence herbicidal action against KCHSC; settings: visual assessment after about 3 weeks
Procedure: as §1

[7] = tested on: ABUTH (Abutylon threophrasti); experiment: Pre-emergence herbicidal effect against ABUTH; settings: scored visually after 3 weeks
From the text: (§2) Seeds of monocotyledonous and dicotyledonous weed plants and crop plants are laid out in sandy loam soil in wood-fiber pots and covered with soil. The compounds of the invention, formulated in the form of wettable powders (WP) or as emulsion concentrates (EC), are then applied to the surface of the covering soil as aqueous suspension or emulsion at a water application rate equating to 600 to 800 l/ha with addition of 0.2% wetting agent. After the treatment, the pots are placed in a greenhouse and kept under good growth conditions for the trial plants. The damage to the test plants is scored visually after a test period of 3 weeks by comparison with untreated controls (herbicidal activity in percent (%): 100% activity=the plants have died, 0% activity=like control plants).

[8] = tested on: AMARE (Amaranthus retroflexus); experiment: Pre-emergence herbicidal effect against AMARE; settings: scored visually after 3 weeks
From the text: as §2

[9] = tested on: DIGSA (Digitaria sanguinalis); experiment: Pre-emergence herbicidal effect against DIGSA; settings: scored visually after 3 weeks
From the text: as §2

[10] = tested on: ECHCG (Echinochloa crus-galli); experiment: Pre-emergence herbicidal effect against ECHCG; settings: scored visually after 3 weeks
From the text: as §2

[11] = tested on: POLCO (Polygonum convolvulus); experiment: Pre-emergence herbicidal effect against POLCO; settings: scored visually after 3 weeks
From the text: as §2

SETVI (Setaria viridis) [12] = experiment: Pre-emergence herbicidal effect against SETVI; settings: scored visually after 3 weeks
From the text: as §2

VIOTR (Viola tricolor) [13] = experiment: Pre-emergence herbicidal effect against VIOTR; settings: scored visually after 3 weeks
From the text: as §2

KCHSC (Kochia scoparia) [14] = experiment: Pre-emergence herbicidal effect against KCHSC; settings: scored visually after 3 weeks
From the text: as §2

LOLRI (Lolium rigidum) [15] = experiment: Post-emergence herbicidal action against LOLRI; settings: visual assessment after about 3 weeks
Procedure: as §1

[16] = tested on: MATIN (Matricaria inodora); experiment: Post-emergence herbicidal action against MATIN; settings: visual assessment after about 3 weeks
Procedure: as §1

[17] = tested on: PHBPU (Pharbitis purpurea); experiment: Post-emergence herbicidal action against PHBPU; settings: visual assessment after about 3 weeks
Procedure: as §1

[18] = tested on: POLCO (Polygonum convolvulus); experiment: Post-emergence herbicidal action against POLCO; settings: visual assessment after about 3 weeks
Procedure: as §1

VERPE (Veronica persica) [19] = experiment: Post-emergence herbicidal action against VERPE; settings: visual assessment after about 3 weeks
Procedure: as §1

[20] = tested on: ALOMY (Alopecurus myosuroides); experiment: Pre-emergence herbicidal effect against ALOMY; settings: 80 g/ha, scored visually after 3 weeks
From the text: as §2

AVEFA (Avena fatua) = experiment: Pre-emergence herbicidal effect against AVEFA; settings: scored visually after 3 weeks
From the text: as §2

LOLRI (Lolium rigidum) [21] = experiment: Pre-emergence herbicidal effect against LOLRI; settings: scored visually after 3 weeks
From the text: as §2

[22] = tested on: MATIN (Matricaria inodora); experiment: Pre-emergence herbicidal effect against MATIN; settings: scored visually after 3 weeks
From the text: as §2

[23] = tested on: PHBPU (Pharbitis purpurea); experiment: Pre-emergence herbicidal effect against PHBPU; settings: scored visually after 3 weeks
From the text: as §2

VERPE (Veronica persica) [24] = experiment: Pre-emergence herbicidal effect against VERPE; settings: 80 g/ha, scored visually after 3 weeks
From the text: as §2

## CSc1c(OC(F)F)ccc(C(=O)Nc2nnco2)c1Cl [Example 1-21, 2-chloro-4-(difluoromethoxy)-3-(methylsulfanyl)-N-(1,3,4-oxadiazol-2-yl)benzamide]
[1]
  Post-emergence effect at 80 g/ha against ABUTH in %: 80%
[2]
  Post-emergence effect at 20 g/ha against AMARE in %: 100%
  Post-emergence effect at 80 g/ha against AMARE in %: 100%
[3]
  Post-emergence effect at 20 g/ha against DIGSA in %: 90%
  Post-emergence effect at 80 g/ha against DIGSA in %: 90%
SETVI (Setaria viridis) [4]
  Post-emergence effect at 20 g/ha against SETVI in %: 80%
  Post-emergence effect at 80 g/ha against SETVI in %: 100%
VIOTR (Viola tricolor) [5]
  Post-emergence effect at 20 g/ha against VIOTR in %: 100%
  Post-emergence effect at 80 g/ha against VIOTR in %: 100%
KCHSC (Kochia scoparia) [6]
  Post-emergence effect at 20 g/ha against KCHSC in %: 90%
  Post-emergence effect at 80 g/ha against KCHSC in %: 100%
[7]
  Pre-emergence effect at 80 g/ha against ABUTH in %: 100%
[8]
  Pre-emergence effect at 20 g/ha against AMARE in %: 90%
  Pre-emergence effect at 80 g/ha against AMARE in %: 100%
[9]
  Pre-emergence effect at 20 g/ha against DIGSA in %: 90%
  Pre-emergence effect at 80 g/ha against DIGSA in %: 100%
[10]
  Pre-emergence effect at 80 g/ha against ECHCG in %: 100%
[11]
  Pre-emergence effect at 80 g/ha against POLCO in %: 100%
SETVI (Setaria viridis) [12]
  Pre-emergence effect at 80 g/ha against SETVI in %: 90%
VIOTR (Viola tricolor) [13]
  Pre-emergence effect at 20 g/ha against VIOTR in %: 100%
  Pre-emergence effect at 80 g/ha against VIOTR in %: 100%
KCHSC (Kochia scoparia) [14]
  Pre-emergence effect at 20 g/ha against KCHSC in %: 90%
  Pre-emergence effect at 80 g/ha against KCHSC in %: 90%

## CS(=O)(=O)c1c(OC(F)(F)F)ccc(C(=O)Nc2nnco2)c1Cl [Example 1-35, 2-chloro-3-(methylsulfonyl)-N-(1,3,4-oxadiazol-2-yl)-4-(trifluoromethoxy)benzamide]
[1]; 20 g/ha
  Post-emergence effect at 20 g/ha against ABUTH in %: 80%
[1]
  Post-emergence effect at 80 g/ha against ABUTH in %: 90%
[2]
  Post-emergence effect at 20 g/ha against AMARE in %: 90%
  Post-emergence effect at 80 g/ha against AMARE in %: 90%
[3]
  Post-emergence effect at 20 g/ha against DIGSA in %: 90%
  Post-emergence effect at 80 g/ha against DIGSA in %: 100%
LOLRI (Lolium rigidum) [15]
  Post-emergence effect at 80 g/ha against LOLRI in %: 80%
[16]; 20 g/ha
  Post-emergence effect at 20 g/ha against MATIN in %: 90%
[16]; 80 g/ha
  Post-emergence effect at 80 g/ha against MATIN in %: 100%
[17]; 20 g/ha
  Post-emergence effect at 20 g/ha against PHBPU in %: 90%
[17]; 80 g/ha
  Post-emergence effect at 80 g/ha against PHBPU in %: 100%
[18]; 20 g/ha
  Post-emergence effect at 20 g/ha against POLCO in %: 80%
[18]; 80 g/ha
  Post-emergence effect at 80 g/ha against POLCO in %: 100%
SETVI (Setaria viridis) [4]
  Post-emergence effect at 20 g/ha against SETVI in %: 100%
  Post-emergence effect at 80 g/ha against SETVI in %: 100%
VERPE (Veronica persica) [19]; 20 g/ha
  Post-emergence effect at 20 g/ha against VERPE in %: 90%
VERPE (Veronica persica) [19]; 80 g/ha
  Post-emergence effect at 80 g/ha against VERPE in %: 100%
VIOTR (Viola tricolor) [5]
  Post-emergence effect at 20 g/ha against VIOTR in %: 100%
  Post-emergence effect at 80 g/ha against VIOTR in %: 100%
KCHSC (Kochia scoparia) [6]
  Post-emergence effect at 20 g/ha against KCHSC in %: 100%
  Post-emergence effect at 80 g/ha against KCHSC in %: 100%
[7]; 20 g/ha
  Pre-emergence effect at 20 g/ha against ABUTH in %: 90%
[7]
  Pre-emergence effect at 80 g/ha against ABUTH in %: 100%
[20]
  Pre-emergence effect at 80 g/ha against ALOMY in %: 80%
[8]
  Pre-emergence effect at 20 g/ha against AMARE in %: 100%
  Pre-emergence effect at 80 g/ha against AMARE in %: 100%
AVEFA (Avena fatua); 20 g/ha
  Pre-emergence effect at 20 g/ha against AVEFA in %: 90%
AVEFA (Avena fatua); 80 g/ha
  Pre-emergence effect at 80 g/ha against A VEFA in %: 100%
[9]
  Pre-emergence effect at 20 g/ha against DIGSA in %: 100%
  Pre-emergence effect at 80 g/ha against DIGSA in %: 100%
[10]; 20 g/ha
  Pre-emergence effect at 20 g/ha against ECHCG in %: 100%
[10]
  Pre-emergence effect at 80 g/ha against ECHCG in %: 100%
LOLRI (Lolium rigidum) [21]; 20 g/ha
  Pre-emergence effect at 20 g/ha against LOLRI in %: 80%
LOLRI (Lolium rigidum) [21]; 80 g/ha
  Pre-emergence effect at 80 g/ha against LOLRI in %: 90%
[22]; 20 g/ha
  Pre-emergence effect at 20 g/ha against MATIN in %: 100%
[22]; 80 g/ha
  Pre-emergence effect at 80 g/ha against MATIN in %: 100%
[23]; 20 g/ha
  Pre-emergence effect at 20 g/ha against PHBPU in %: 80%
[23]; 80 g/ha
  Pre-emergence effect at 80 g/ha against PHBPU in %: 100%
[11]; 20 g/ha
  Pre-emergence effect at 20 g/ha against POLCO in %: 90%
[11]
  Pre-emergence effect at 80 g/ha against POLCO in %: 100%
SETVI (Setaria viridis) [12]; 20 g/ha
  Pre-emergence effect at 20 g/ha against SETVI in %: 100%
SETVI (Setaria viridis) [12]
  Pre-emergence effect at 80 g/ha against SETVI in %: 100%
VERPE (Veronica persica) [24]
  Pre-emergence effect at 80 g/ha against VERPE in %: 100%
VIOTR (Viola tricolor) [13]
  Pre-emergence effect at 20 g/ha against VIOTR in %: 100%
  Pre-emergence effect at 80 g/ha against VIOTR in %: 100%
KCHSC (Kochia scoparia) [14]
  Pre-emergence effect at 20 g/ha against KCHSC in %: 100%
  Pre-emergence effect at 80 g/ha against KCHSC in %: 100%
